Data taken from US10538528B2, “5H-pyrrolo[2,3-D]pyrimidin-6(7H)-one derivative” (Taiho Pharmaceutical Co., Ltd., priority 2016, dated 2020).

Columns and labels:
[1] = system: RKO cells (human colon cancer cell lines); test: Cell growth inhibition study using RKO cells (CellTiter-Glo); type: cell-based; details: 72 h, 3 days
Procedure: The in vitro cell growth inhibition study using RKO cells (human colon cancer cell lines) was conducted as described below.
RKO cells (ATCC, Cat#: CRL-2577) cultured in a MEM medium (GIBCO, Cat#:10370-088) supplemented with 10% FBS, 1 mM L-glutamine (GIBCO, Cat#:25030), and 1 mM sodium pyruvate (GIBCO, Cat#:11360) were seeded in a 96-well flat bottom microplate (COSTAR, Cat#:3904) at 2×10^3 cells (150 μl) and cultured in an incubator containing 5% CO2 at 37° C. for 1 day. The compound according to the present invention subjected to serial dilution with dimethyl sulfoxide or dimethyl sulfoxide alone was added to a MEM medium containing 10% FBS, 1 mM L-glutamine, and 1 mM sodium pyruvate. The resultant medium containing the compound or dimethyl sulfoxide alone was added to the RKO cells in the culture plate by 50 μl/well at the final concentration of the compound to 10, 3, 1, 0.3, 0.1, 0.03, 0.01, 0.003, and 0 μM, respectively. Another RKO cell culture plate separately prepared was allowed to stand at room temperature for 30 minutes, then 100 μl of the medium was removed, and added 50 μl of CellTiter-Glo® 2.0 Assay (Promega, Cat#:G9242) to each well. After the plates were placed in the dark for 10 minutes, the luminescence level derived from viable cells in each well was measured by the Multimode Plate Reader (PerkinElmer, EnSpire). The cells treated with the compound or dimethyl sulfoxide alone were cultured at 37° C. in an incubator containing 5% CO2 for an additional 3 days. After incubation, the culture plate was placed at room temperature for 30 minutes, and 150 μl of the supernatant was removed from each well to adjust the amount of the remaining cell culture solution to 50 μl each. To 50 μl of the remaining cell culture solution, the equivalent amount of CellTiter-Glo® 2.0 Assay was added. After the cell culture plate was placed in the dark for 10 minutes, the luminescence level derived from viable cells in each well was assayed with the use of the Multimode Plate Reader. The cell growth rate was calculated by the formulae shown below and the concentration at which the cell growth rate became 50%; i.e., the concentration of the compound according to the present invention at which cell growth would be inhibited by 50% was determined (GI50 (nM)). Cell growth rate (%)=(T−C0)/(C−C0)×100, provided that T is equal to or greater than C0(T≥C0) Cell growth rate (%)=(T−C0)/C0×100, provided that T is less than C0(T<C0) C0: Luminescence level in each well when the compound is added (count per second) C: Luminescence level in each well when dimethyl sulfoxide is added alone (count per second) T: Luminescence level in each well when the test compound is added (count per second)
As control compounds, conventional Comparative Example A (WO 2010/056563 (Example 31)) and Comparative Example B having inhibitory activity against Akt were used.
The GI50 levels of representative compounds according to the present invention and reference compounds in RKO cells were evaluated, and the results are shown in Table 5.

[2] = system: HEC-6 cells (endometrial cancer cell lines); test: Cell growth suppression test on HEC-6 cells (CellTiter-Glo); type: cell-based; details: 72 h, read-out: Cell growth inhibition GI50, heading: Cell growth inhibition GI50, 3 days, table head prints μM, method says GI50 (nM)
Procedure: The in vitro cell growth suppression test on HEC-6 cells (endometrial cancer cell lines) was performed under the conditions described below.
HEC-6 cells (Health Science Research Resources Bank, Cell Number: JCRB1118) cultured in a MEM medium containing 15% FBS (GIBCO, Cat#: 10370) were seeded on a 384-well flat bottom microplate (CORNING, Cat#: 3571) at 500 cells/well (20 μl) and cultured in an incubator containing 5% carbon dioxide at 37° C. for 1 day. The compound according to the present invention subjected to serial dilution with dimethyl sulfoxide or dimethyl sulfoxide alone was added to a MEM medium containing 15% FBS. […] Thereafter, the luminescence level derived from viable cells in each well was assayed with the use of the Multimode Plate Reader (PerkinElmer, EnVision). […] Thereafter, the luminescence level derived from viable cells in each well was assayed with the use of the Multimode Plate Reader. […] Cell growth rate (%)=(T−C0)/(C−C0)×100, provided that T is equal to or greater than C0(T≥C0) Cell growth rate (%)=(T−C0)/C0×100, provided that T is less than C0(T<C0) C0: Luminescence level in each well when the compound is added (count per second) C: Luminescence level in each well when dimethyl sulfoxide is added alone (count per second) T: Luminescence level in each well when the test compound is added (count per second) […]

human Akt1 = human Akt1 (Homo sapiens (Human), UniProt P31749); test: Inhibitory effects on Akt1 kinase activity (TR-FRET, biotinylated Crosstide); type: biochemical; details: Akt1, ATP 150 μM, pre-incubation 120 minutes at 25° C.; read-out: AKT inhibitory activity IC50
Sequence of human Akt1 (P31749 whole entry): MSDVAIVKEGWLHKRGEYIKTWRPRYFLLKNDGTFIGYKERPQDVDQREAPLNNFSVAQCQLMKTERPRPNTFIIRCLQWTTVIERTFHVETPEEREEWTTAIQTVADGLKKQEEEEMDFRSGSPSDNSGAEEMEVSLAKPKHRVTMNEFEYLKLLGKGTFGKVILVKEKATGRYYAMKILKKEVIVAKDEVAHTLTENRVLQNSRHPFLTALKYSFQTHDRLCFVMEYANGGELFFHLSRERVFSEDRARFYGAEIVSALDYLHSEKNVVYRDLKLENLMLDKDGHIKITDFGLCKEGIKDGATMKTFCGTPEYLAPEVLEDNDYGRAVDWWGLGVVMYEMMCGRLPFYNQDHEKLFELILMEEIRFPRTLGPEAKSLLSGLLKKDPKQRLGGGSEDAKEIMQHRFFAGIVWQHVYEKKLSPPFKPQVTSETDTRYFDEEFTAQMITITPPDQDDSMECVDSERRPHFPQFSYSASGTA
Outline: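 Middle T-tagged human Akt1 from Sf9 cells, PDK1-activated, pre-incubated with compound 120 min at 25 °C (Tris pH 7.5); then 500 nM biotin-Crosstide, 10 mM MgCl2, 150 μM ATP for 60 min at 25 °C. Eu-anti-phospho-Crosstide/APC-SA TR-FRET 665/620 ratio; IC50 as 50% phosphorylation inhibition.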

## CC(C)(C)NCCNc1cc(-c2cncc(F)c2)nc(C2CCN(c3ncnc4c3C(C)(C)C(=O)N4)CC2)c1 [Comparative Example B, 4-(4-(4-((2-(Tert-butylamino)ethyl)amino)-5′-fluoro-[2,3′-bipyridin]-6-yl)piperidin-1-yl)-5,5-dimethyl-5H-pyrrolo[2,3-d]pyrimidin-6(7H)-one, reference compound]
[1]
  GI50: 2640 nM
[2]
  GI50: 2.92 µM
Human Akt1
  IC50: 657 nM

## CN(C)CCn1cc(-c2ccc(F)c(C(F)(F)F)c2)nc1C1CCN(c2ncnc3c2C(C)(C)C(=O)N3)CC1 [Comparative Example A, reference compound]
[1]
  GI50: 1050 nM
[2]
  GI50: 1.04 µM
